Tests used:
[1] = Calcemic activity in rats, serum calcium after 7 days oral gavage; format: in vivo, LEW/MOL female rats; details: for Calcium in Serum: 0.5 μg/kg/day p.o., ± S.D.
Protocol: For determining calcemic activity, LEW/MOL female rats (130-170 g) were administered test compounds daily for 7 days by oral gavage. Control rats received the vehicle. Each group consisted of 3 rats. Blood was collected by cardiac puncture on day 7.

[2] = cited from earlier work

- Calcium in Serum ([1]; Table 2A (vehicle 2.46 ± 0.06)): 2.71 ± 0.08 mmol/L
- Calcium in Serum ([1]; Table 2B (vehicle 2.57 ± 0.06)): 2.66 ± 0.10 mmol/L
- Calcium in Serum ([1]; Table 2C (vehicle 2.68 ± 0.03)): 2.77 ± 0.03 mmol/L
- Calcium in Serum ([1]; Table 2D (vehicle 2.51 ± 0.09)): 2.71 ± 0.03 mmol/L
- Calcium in Serum ([1]; Table 2E (vehicle 2.51 ± 0.09)): 2.71 ± 0.03 mmol/L
- Calcemic Activity (%) ([1]; potency relative to 1α,25(OH)2 D3, rats, p.o. 7 days): 100%
SMILES: C=C1/C(=C\C=C2/CCC[C@]3(C)[C@@H]([C@H](C)CCCC(C)(C)O)CC[C@@H]23)C[C@@H](O)C[C@@H]1O [1α,25(OH)2 D3, 1,25-dihydroxy vitamin D3, reference compound]
- serum calcium levels at doses that induce NGF ([2]; background): increase serum calcium levels at doses that induce NGF
- calcemic effect at efficacious doses ([2]; based upon previous data): calcemic

From patent US6207656A, “Vitamin D analogues and their neuronal effects” (Cephalon, Inc., priority 1998, dated 2001)
